Measurements taken from patent US7371867B2, “Non-racemic trifluoroleucine, and methods of making and using” (Trustees of Tufts College, priority 2001, dated 2008).

melting point: 85 to 91 °C
Structure (SMILES): CC(C)(C)OC(=O)N[C@@H](CC(C(F)(F)F)C(F)(F)F)C(=O)O [Peptide 5, N-Boc-5,5,5,5′,5′,5′-(S)-Hexafluoroleucine]
